pIC50: −log10 of the molar value. Blank lines part the entries; values can stand above or below the molecule they belong to.
Legend:
AML cells = experiment: Cell viability and growth in AML cells (FIGS. 9A-9B); assay type: cell-based
Protocol: (§1) Cell viability and proliferation assay. Cell viability and proliferation were performed with CellTiter 96 Non-Radioactive Cell Proliferation Assay (MTT, […], Promega). To verify the function of METTL16 inhibitor, cancer cells were seeded into 96-well plate and treated with a series of drug concentration in triplicates. For the cell proliferation with METTL16 knockdown stable cell lines were seeded into 96-well plates, and cultured in the incubator at 37° C. with 5% CO2. 15 μl of the Dye Solution was added into each well. After incubation of 2-4 h, 100 μl of the Solubilization Solution/Stop Mix was added to each well. Finally, the absorbance was determined at 570 nm on the next day.

AML and other cancers = experiment: Cell viability of cancer cell lines on CDH24 treatment (MTT); assay type: cell-based, human
Protocol: as §1
FIG. 4A provides a Western blots analysis showing the levels of METTL16 expression in various AML cell lines (Kasumi-1, MONOMAC6 (MM6), K562, ML-2, 9.3ITD, U937) and normal bone marrow (BM) mononuclear cells. Actin served as a loading control. […] The values were detected by MTT assays 48 or 72 hours post treatment. In FIGS. 4A-4K: *p<0.05; **p<0.01; ***p<0.001; t test. Error bars, mean±SEM (n≥3)

METTL16 [1] = target: T1, METTL16 (Homo sapiens, UniProt Q86W50); experiment: Drug affinity responsive target stability (DARTS) in U937 cell lysates; assay type: binding; details: CDH24 0.1 uM to 500 uM, pronase digestion, immunoblot
T1 construct: endogenous in cells; host or cells: U937, Kasumi-1, MA9.3RAS (human AML cells)
T1 sequence (Q86W50 1-562): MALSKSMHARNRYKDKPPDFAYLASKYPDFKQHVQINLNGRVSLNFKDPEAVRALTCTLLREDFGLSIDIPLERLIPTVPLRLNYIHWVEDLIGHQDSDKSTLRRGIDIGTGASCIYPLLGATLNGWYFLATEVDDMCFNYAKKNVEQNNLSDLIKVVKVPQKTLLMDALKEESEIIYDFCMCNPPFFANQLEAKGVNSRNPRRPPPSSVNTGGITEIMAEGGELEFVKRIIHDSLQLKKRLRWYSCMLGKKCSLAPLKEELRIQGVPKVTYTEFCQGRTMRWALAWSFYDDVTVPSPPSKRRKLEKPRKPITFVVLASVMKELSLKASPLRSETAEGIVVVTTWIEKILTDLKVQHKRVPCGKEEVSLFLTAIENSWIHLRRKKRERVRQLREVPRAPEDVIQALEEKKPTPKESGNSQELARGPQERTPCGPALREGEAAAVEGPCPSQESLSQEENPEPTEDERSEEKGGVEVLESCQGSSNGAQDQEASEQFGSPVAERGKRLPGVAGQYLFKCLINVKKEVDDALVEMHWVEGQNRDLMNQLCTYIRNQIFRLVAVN
Protocol: Drug Affinity Responsive Targets Stability (DARTS). […] In short, 4×10^7 U937 cells were collected, washed with chilled PBS, and lysed in 600 ul M-PER (78501, Thermo Fisher Scientific) supplement with protease inhibitor cocktail and phosphatase inhibitor cocktail. The cells were lysed on ice for 10 min, and centrifuged at 18,000 g for 10 min at 4° C. The supernatant was carefully transferred to a new tube. 10× TNC buffer (500 mM Tris-HCl with pH 8.0, 500 mM NaCl, 100 mM CaCl2) was added into lysate, the protein concentration was then detected by BCA assay. The protein concentration diluted with 1× TNC buffer was adjusted to 5 ug/ul. […] The reaction was quenched by addition of protease inhibitor cocktail and the sample was immediately placed on ice. 4× Laemmli Sample Buffer was added to lysate and denatured at 99° C. for 10 min. Finally, western blotting was used to determine the abundance of METTL16.
(§2) For DARTS, U937 cell lysates were treated with CDH-24 (from 0.1 uM to 500 uM) or DMSO; samples were subjected to pronase digestion and detected by immunoblotting. Actin was resistant to subtilizing under these conditions and served as a loading control. […] METTL16 knockdown by shRNAs was confirmed by western blots (FIG. 5D). […] In FIGS. 5A-5F: *p<005; **p<0.01: ***p<0001; t test. Error bars, mean±SEM (n≥3).

METTL16 [2] = target: T1, METTL16; experiment: m6A dot blot, global m6A in AML cells; assay type: cell-based
Protocol: m^6A dot blot assay. Total RNA was purified with QIAzol regent, and mixed well with 3 volumes of RNA incubation buffer, then denatured at 65° C. for 5 minutes and cooling down on ice immediately. 200 ul of 10×SSC buffer (S6639, Sigma-Aldrich) was loaded onto the Amersham Hybond-N+ membrane for each well to pre-wet the membrane. Then one volume of 20×SSC buffer was added into the RNA samples before dotted onto the membrane. The UV irradiation was used to crosslink RNA to the membrane. After crosslink, the membrane was stained by 0.02% methylene blue and scanned as loading control. Then, the membrane was blocked with 5% nonfat dry milk at room temperature for 1 h and incubated with anti-m6A antibody (1:2000, Synaptic Systems) overnight at 4° C. Next day, the membrane was incubated with the HRP-conjugated goat anti-rabbit IgG (ab6721, abcam) at room temperature for 1 h and developed with pierce ECL Western blotting Substrate (PI32106, Thermo Fisher).
MB, methyl blue (as loading control). FIGS. 6B-6C show gene-specific m^6A qPCR analysis of m^6A level changes in mRNA transcripts of several known target transcripts of METTL16 in U937 (FIG. 6B) or MA9.3RAS (FIG. 6C) AML cells upon 72 hours treatment of […], relative to cells treated with DMSO.

METTL16 [3] = target: T1, METTL16; experiment: Cellular thermal shift assay (CETSA) in U937 cells; assay type: binding; details: 50 μM CDH24 1 h, different temperatures, immunoblot
Protocol: Cellular Thermal Shift Assay (CETSA). […] Then, the cells were re-suspended in 1.5 ml PBS supplemented with protease inhibitor cocktail. And the cells were distributed into 10 different 200 ul 8-strip PCR tubes with 100 ul for each tube, heat shocked in the Bio-Rad T100 Thermal Cycler at indicated temperature for 3 min to denature proteins, and immediately cooled down at room temperature for 3 min. cells were lysed using dry ice and two repeated cycles of freeze-thaw, then centrifuged at 20,000 g for 20 min at 4° C. Soluble proteins, collected from the supernatant were denatured with 4× Laemmli Sample Buffer at 99° C. for 10 min. Finally, the protein samples were analyzed by western blot.
as §2

human NOMO-1 AML cells = experiment: Viability of human NOMO-1 AML cells (MTT, CellTiter 96); assay type: cell-based; details: NOMO-1 cells, 10,000 cells/well, 72 h treatment, read-out: IC50 in inhibiting the viability of human NOMO-1 AML cells
Protocol: as §1
The compounds described herein were tested for their ability to inhibit the viability of human NOMO-1 AML cells. […] Cell viability. NOMO-1 cells were seeded into 96-well plate in the concentration of 10,000 cells/well and treated with compounds in triplicates for 72 h. Cell viability was assessed by CellTiter 96 Non-Radioactive Cell Proliferation Assay (MTT, G4100, Promega) following the manufacturer's protocols.

Structure (SMILES): Nc1ccc(Cn2ccc3c4c(N)nc(N)nc4ccc32)c(CO)c1 [CDH24-6]
cell viability and growth in AML cells (AML cells): inhibit cell viability and growth

Structure (SMILES): Nc1ccc(CO)c(Cn2ccc3c4c(N)nc(N)nc4ccc32)c1 [CDH24-7]
cell viability and growth in AML cells (AML cells): inhibit cell viability and growth

binding to METTL16 by DARTS (METTL16 [1]): direct binding
methyltransferase activity of METTL16 and expression of METTL16 target genes (METTL16 [2]; FIGS. 6A-6C): inhibitory effect
levels of global m^6A (METTL16 [2]; U937, Kasumi-1 and MA9.3RAS AML cells, 48 hours treatment): increases
binding to METTL16 by CETSA (METTL16 [3]): direct binding
Structure (SMILES): Nc1ccc(Cn2ccc3c4c(N)nc(N)nc4ccc32)cc1 [CDH24]
cell viability and growth in AML and other cancers (AML and other cancers; FIGS. 4A-4K): inhibitory effect
cell viability in ALL, lymphoma, cervical cancer, pancreatic cancer and glioblastoma cell lines (AML and other cancers; MTT assay 72 hours post treatment, series of concentrations): inhibitory effects

Structure (SMILES): N#Cc1ccc(-n2ccc3c4c(N)nc(N)nc4ccc32)cc1 [Compound (E)]
pIC50 (human NOMO-1 AML cells): 7.69

Structure (SMILES): Nc1nc(N)c2c(ccc3c2ccn3Cc2ccc(Cl)cc2)n1 [Compound (F)]
pIC50 (human NOMO-1 AML cells): 8.81

Structure (SMILES): N#Cc1ccc(C(=O)n2ccc3c4c(N)nc(N)nc4ccc32)cc1 [Compound (G)]
pIC50 (human NOMO-1 AML cells): 6.13

Structure (SMILES): CC(=O)Nc1ccc(Cn2ccc3c4c(N)nc(N)nc4ccc32)cc1 [Compound D]
pIC50 (human NOMO-1 AML cells): 8.86

Structure (SMILES): Nc1nc(N)c2c(ccc3[nH]ccc32)n1 [Compound H]
pIC50 (human NOMO-1 AML cells): 6.03

Source: patent US12576082B2, “METTL16 inhibitors and uses thereof” (City of Hope, priority 2019, dated 2026)
